{"source": "patent US10206900B2", "about": "“Treatments for fibrotic diseases” (MOR RESEARCH APPLICATIONS LTD., priority 2013, dated 2019)", "key": {"[1]": {"system": "Smad2/3", "test": "Smad2/3 phosphorylation by immuno-blot in W2b liver hepatocytes", "assay_type": "cell-based", "details": "1 μM for 1 hour, TGF-β 2.5 ng/ml", "method": "FIG. 10: Inhibition of TAK1 abolishes the activation of TGF-β cascades in liver cells. TGF-β1 up-regulates-Smad 2/3 and p38 activation and E-cadherin expression via TAK1 activity in hepatic cells. W2B liver hepatocytes cells were treated with or without 5Z-7-oxozeaenol followed by TGF-β treatment and Smad2/3 and p38 phosphorylation patterns were examined by immuno-blots. W2b liver hepatocytes cells were treated with or without 5Z-7-oxozeaenol (1 μM) for 1 hour followed by TGF-β treatment (2.5 ng/ml) for the indicated times. Smad2/3 and p38 phosphorylation patterns were examined by immuno-blots as described above."}, "[2]": {"system": "RPE cells", "test": "Scratch assay, cell migration upon TGF-β1 stimulation", "assay_type": "cell-based", "details": "1 μM, TGF-β1 2.5 ng/ml, 24 and 48 hours", "method": "FIGS. 2A-2C TAK1 regulates RPE cells EMT phenotype upon TGF-β stimulation. FIG. 2A: RPE cells were serum-starved for 16 hours, pretreated with 5Z-7-oxozeaenol (1 μM) or left untreated for 1 hour. The cells were then treated with TGF-β1 (2.5 ng/ml) as described herein for 24 h and immunostained with α-SMA antibodies (red) and DAPI (blue). Representative photographs of three independent experiments. The histogram in the bottom panel represents quantification of α-SMA antibody pixel intensity. FIG. 2B: RPE cells were serum-starved for 16 hours, then treated with mitomycin C (10 ng/ml) for 3 h. Thereafter, pretreated with 5Z-7-oxozeaenol (1 μM) or Dimethyl sulfoxide (DMSO) for 1 hour. Following this process a scratch was performed in the cell monolayer and the serum free medium was supplemented with TGF-β1 (2.5 ng/ml) or left unsupplemented. Scratches were photo-documented at the indicated times (top panel) and their width was measured using Image-J software. […] Bars are Mean±SD. FIG. 2C: RPE cells were serum-starved for 16 hours then pretreated with 5Z-7-oxozeaenol (1 μM) or SB431542 (10 μM), or DMSO for 1 hour. […] Total MMP-9 activities were processed by gelatin zymography (top panel) and the band intensity values were calculated by Quantity One® 1-D analysis software. […] Data is expressed as the Mean±SD. […]"}, "[3]": {"system": "Smad2/3", "test": "Smad2/3 phosphorylation by immuno-blot in HT29 colon cells", "assay_type": "cell-based", "details": "HT29 Human colon cells, TGF-β treatment, versus untreated cells", "method": "FIG. 11. Inhibition of TAK1 abolishes the activation of TGF-β cascades in colon cells. TGF-β1 up-regulates-Smad 2/3 and p38 activation via TAK1 activity in colon cells. HT29 Human colon cells were treated with or without 5Z-7-oxozeaenol followed by TGF-β treatment. Smad2/3 and p38 phosphorylation patterns were examined by immuno-blots. HT29 Human colon cells were treated as in the previous examples with or without 5Z-7-oxozeaenol, followed by TGF-β treatment. Inhibition of TAK1 was assayed by observation of Smad2/3 and p38 phosphorylation patterns by immuno-blots."}, "[4]": {"system": "RPE cells", "test": "Cell size / morphology (rhodamine-phalloidin staining) upon TGF-β1", "assay_type": "cell-based", "details": "5Z-7-oxozeaenol 1 μM or SB431542 10 μM prior to TGF-β1", "method": "FIG. 3A: RPE cells were plated on fibronectin-coated glass coverslips, serum-starved for 16 hours, pretreated with 5Z-7-oxozeaenol (1 μM) or SB431542 (10 μM), or DMSO for 1 hour, then treated with or without TGF-β1 for 2 days. Following treatment, the cells were stained with rhodamine-phalloidin (actin fibers-red) and DAPI (blue) and visualized by confocal microscopy. Scale bars: […]. FIG. 3B: Serum-starved RPE cells pretreated with 5Z-7-oxozeaenol (1 μM) or DMSO for 1 hour, and were exposed to TGF-β as in FIG. 3A. Total RNA was extracted at each time point and qPCR was performed. Transcription levels of CTGF were determined after 6 h, 16 h and 24 h. Bars represent the specific mRNA amount relative to GAPDH mRNA in the same samples. All experiments were performed in triplicates. A representative histogram from two independent experiments is shown. FIG. 3C: RPE cells were plated and treated as in FIG. 3A. Following treatment, the cells were immunostained with E-cadherin antibodies (green) and DAPI (blue). Representative photographs of two independent experiments are shown. In addition to the secretion of MMPs and increased migratory capacity, several morphological changes underlie EMT (Lamouille et al., I 2007, 178:437-451). […]"}, "[5]": {"system": "c57Black mice", "test": "DSS-induced colitis in mice, fibrotic markers", "assay_type": "in vivo", "details": "DSS 1.5% eight days, IP 180 ng per animal daily", "method": "C57black mice were treated with dextran sodium sulfate (DSS)-S 1.5% diluted in water for eight days and with or without 5Z-7 (1 uM) was IP injected total 180 ng for each animal Daily. After eight days the mice underwent evaluation to detect abnormalities in the Colom structure. N=14 mice for each group, Student T-test was used to determine the p value. The chart in FIG. 13 compares known markers that are considered as the main morphological phenotype for colitis. […] C57black mice were treated with dextran sodium sulfate (DSS)-S 1.5% diluted in water for eight days and with or without 5Z-7 (1 uM) IP injected total 180 ng for each animal daily. After eight days the mice underwent evaluation to detect abnormalities in the colon structure. In mice treated with DSS all markers of fibrosis such as: granulation, Transparency, fibrin and blood vessels were elevated by the DSS."}}, "data": [{"compound": "COc1cc(O)c2c(c1)/C=C/C[C@H](O)[C@H](O)C(=O)/C=C\\C[C@H](C)OC2=O", "note": "[5Z-7-oxozeaenol]", "values": [{"measurement": "Smad2/3 activation", "setting": "[1]", "result": "barely detectable"}, {"measurement": "migratory capacity of TGF-β1 stimulated cells (scratch assay)", "setting": "[2]", "result": "abolished their migratory capacity"}, {"measurement": "Smad2/3 phosphorylation", "setting": "[3]", "result": "significantly inhibited"}, {"measurement": "TGF-β1-induced increase in cell size (hypertrophic RPE cells)", "setting": "[4]", "result": "minimal number of hypertrophic RPE cells"}, {"measurement": "fibrotic markers of colitis (granulation, Transparency, fibrin, blood vessels)", "setting": "[5]", "result": "reduce the fibrotic markers"}]}]}
